For eleven compounds, IC50 results are on record in US8912200B2, “Alkynyl substituted pyrimidinyl-pyrroles active as kinases inhibitors” (Nerviano Medical Sciences S.R.L., priority 2011, dated 2014).

What is called IC50 is the concentration needed to halve the response being measured. Read a high IC50 as a need for much substance.

The target in experiment [1] is T1, JAK2 kinase domain (Homo sapiens, UniProt O60674).
T1 construct: commercially available JAK2 kinase domain; purchased Invitrogen, Eugene, Oreg
T1 sequence (O60674 849-1124 limits assumed): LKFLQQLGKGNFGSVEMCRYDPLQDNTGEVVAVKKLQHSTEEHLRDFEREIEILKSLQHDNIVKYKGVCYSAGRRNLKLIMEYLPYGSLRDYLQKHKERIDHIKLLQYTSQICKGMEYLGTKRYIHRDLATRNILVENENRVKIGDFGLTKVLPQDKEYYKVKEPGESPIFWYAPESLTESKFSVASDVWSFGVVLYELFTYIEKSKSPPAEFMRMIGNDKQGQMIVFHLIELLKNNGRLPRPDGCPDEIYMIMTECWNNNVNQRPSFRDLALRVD
The experiment is described as follows: Biochemical assay for inhibitors of JAK kinase activity (JAK2, 33P-γ-ATP/dowex resin). The following applies: JAK2 kinase domain 1 nM, 60 μM ATP. The text has this:
Biochemical Assay for Inhibitors of JAK Kinase Activity
Specific JAK2, JAK1 or JAK3 peptide substrates are trans-phosphorylated by JAK kinases in the presence of ATP traced with 33P-γ-ATP. At the end of the phosphorylation reaction, the unreacted ATP, cold and radioactive, is captured by an excess of dowex ion exchange resin that eventually settles by gravity to the bottom of the reaction plate. The supernatant is subsequently withdrawn and transferred into a counting plate that is then evaluated by β-counting.
500 g of wet resin (SIGMA, custom prepared resin DOWEX 1×8 200-400 mesh, 2.5 Kg) are weighed out and diluted 2 to 1 in 150 mM sodium formate, pH 3.00. The resin is allowed to settle down overnight and then the supernatant is discarded. After three washes as above over a couple of days, the resin is allowed to settle and two volumes (with respect to the resin volume) of 150 mM sodium formate buffer are added.
Kinase buffer was composed of 50 mM HEPES pH 7.5 containing 10 mM MgCl2, 2.5 mM DTT, 10 μM Na3VO4 and 0.2 mg/mL BSA.
JAK2 Specific Assay Conditions
The JAK2 kinase assay was run with a final enzyme concentration of 1 nM, in the presence of 60 μM ATP, 3 nM 33P-γ-ATP and 64 μM of substrate BioDBn*306 (Aminoacid sequence: LPLDKDYYVVREPGQ—SEQ ID NO: 1). The peptidic substrate was purchased from American Peptide Company (Sunnyvale, Calif.).
(§1) For IC50 determination, test compounds are received as a 1 mM solution in 100% DMSO, distributed into 96 well plates: compounds are then plated into the first column of a microtiter plate (A1 to G1), 100 μL/well.
(§2) An automated station for serial dilutions (Biomek FX, Beckman) is used for producing 1:3 dilutions in 100% DMSO, from line A1 to A10, and for all the compounds in the column. Moreover, 4-5 copies of daughter plates are prepared by reformatting 5 μL of this first set of 100% DMSO dilution plates into 384 deep well-plates: one of these plates with the serial dilutions of test compounds will be thawed the day of the experiments, reconstituted at a 3× concentration with water and used in the IC50 determination assays. In a standard experiment, the highest concentration (3×) of all compounds is 30 μM, while the lowest one is 1.5 nM. Each 384 well-plate will contain at least one curve of the standard inhibitor staurosporine and reference wells (total enzyme activity vs. no enzymatic activity) for the Z′ and signal to background evaluation.
384-well plates, V bottom (test plates) are prepared with 5 μL of the compound dilution (3×) and then placed onto a PlateTrak 12 robotized station (Perkin Elmer; the robot has one 384-tip pipetting head for starting the assay plus one 96-tip head for dispensing the resin) together with one reservoir for the Enzyme mix (3×) and one for the ATP mix (3×). At the start of the run, the robot aspirates 5 μL of ATP mix, makes an air gap inside the tips (3 μl) and aspirates 5 μL of JAK2 mix. The following dispensation into the plates plus 3 cycles of mixing, done by the robot itself, starts the kinase reaction. At this point, the correct concentrations are restored for all the reagents. The robot incubates the plates for 60 minutes at room temperature, and then stops the reaction by pipetting 60 μL of dowex resin suspension into the reaction mix. In order to avoid tip clogging, wide bore tips are used to dispense the resin suspension. Three cycles of mixing are done immediately after the addition of the resin. Another mixing cycle is performed after all the plates are stopped, this time using normal tips: the plates are then allowed to rest for about one hour in order to allow resin sedimentation. At this point, 27 μL of the supernatant are transferred into 384-Optiplates (Perkin-Elmer), with 50 μL of Microscint 40 (Perkin-Elmer); after 5 min of orbital shaking the plates are read on a Perkin-Elmer Top Count radioactivity counter. […]

Experiment [2] concerns the target T2, Lyn full length (Homo sapiens, UniProt P07948).
T2 construct: The assay has been performed using Lyn full length
The experiment can be described thus: Biochemical assay for inhibitors of Lyn (Src family) kinase activity. The following applies: Lyn full length 1 nM, 25 μM ATP.
Text: Biochemical Assay for Inhibitors of Lck and Lyn (Src Family) Kinases Activity
Specific Lck and Lyn substrates are trans-phosphorylated by Lck and Lyn kinases in the presence of ATP traced with 33P-γ-ATP. At the end of the phosphorylation reaction, the unreacted ATP, cold and radioactive, is captured by an excess of dowex ion exchange resin that eventually settles by gravity to the bottom of the reaction plate. The supernatant is subsequently withdrawn and transferred into a counting plate that is then evaluated by β-counting.
Lyn Specific Assay Conditions
The assay has been performed using Lyn full length (accession number P07948 of UniProtKB/Swiss-Prot database).
Kinase buffer was composed of 50 mM HEPES pH 7.5 containing 3 mM MgCl2, 1 mM DTT, 3 μM Na3VO4, and 0.2 mg/mL BSA.
The Lyn kinase assay was run with a final enzyme concentration of 1 nM, in the presence of 25 μM ATP, 1.5 nM 33P-γ-ATP and 250 μM of substrate ABI 1 (Aminoacid sequence: EAIYAAPFAKKK—SEQ ID NO: 3). The peptidic substrate was purchased from American Peptide Company (Sunnyvale, Calif.).
as §1, §2
384-well plates, V bottom (test plates) are prepared with 5 μL of the compound dilution (3×) and then placed onto a PlateTrak 12 robotized station (Perkin Elmer; the robot has one 384-tip pipetting head for starting the assay plus one 96-tip head for dispensing the resin) together with one reservoir for the Enzyme mix (3×) and one for the ATP mix (3×). At the start of the run, the robot aspirates 5 μL of ATP mix, makes an air gap inside the tips (3 μl) and aspirates 5 μL of JAK2 mix. The following dispensation into the plates plus 3 cycles of mixing, done by the robot itself, starts the kinase reaction. At this point, the correct concentrations are restored for all the reagents. The robot incubates the plates for 60 minutes at room temperature, and then stops the reaction by pipetting 60 μL of dowex resin suspension into the reaction mix. In order to avoid tip clogging, wide bore tips are used to dispense the resin suspension. Three cycles of mixing are done immediately after the addition of the resin. Another mixing cycle is performed after all the plates are stopped, this time using normal tips: the plates are then allowed to rest for about one hour in order to allow resin sedimentation. At this point, 27 μL of the supernatant are transferred into 384-Optiplates (Perkin-Elmer), with 50 μL of Microscint 40 (Perkin-Elmer); after 5 min of orbital shaking the plates are read on a Perkin-Elmer Top Count radioactivity counter.
Data are analyzed by an internally customized version of the SW package “Assay Explorer” that provides sigmoidal fitting of the ten-dilutions curves for IC50 determination in the secondary assays/hit confirmation routines.

In experiment [3] the test system is JAK2 dependent human megakaryoblastic leukemia cell line SET-2. The experiment is described as follows: Cell proliferation assay (CellTiter-Glo, 72 hours). The class given is cell-based. The following applies: Homo sapiens, SET-2 cells. As for the experimental part:
The JAK2 dependent human megakaryoblastic leukemia cell line SET-2 (DSMZ, Braunschweig GERMANY) and the JAK2 independent human chronic myelogenous leukaemia cell line K562 (ECACC, Wiltshire, UK) were cultured in RPMI-1640 medium-Glutamax (Gibco BRL, Gaithesburg, Md., USA), supplemented with 10% fetal bovine serum (FBS) at 37° C. and 5% CO2.
Cell Proliferation Assay:
Approximately 5×10^3 cells were plated into 384 microtiter plate wells in 50 μL of growth media with different concentrations of inhibitors. The cells were incubated at 37° C. and 5% CO2 for 72 hours, then the plates were processed using CellTiter-Glo assay (Promega, Madison, Wis., USA) following the manufacturer's instruction. Briefly 25 μL/well reagent solution is added to each well and after 5 minutes shaking the micro-plates are read by Envision luminometer (PerkinElmer, Waltham, Mass., USA).
Data are analyzed by Symix Assay Explorer software (Symix Technologies Inc.) that provides sigmoidal fitting algorithm of the 8 points dilutions curves for IC50 determination.

T2 sequence (P07948 whole entry): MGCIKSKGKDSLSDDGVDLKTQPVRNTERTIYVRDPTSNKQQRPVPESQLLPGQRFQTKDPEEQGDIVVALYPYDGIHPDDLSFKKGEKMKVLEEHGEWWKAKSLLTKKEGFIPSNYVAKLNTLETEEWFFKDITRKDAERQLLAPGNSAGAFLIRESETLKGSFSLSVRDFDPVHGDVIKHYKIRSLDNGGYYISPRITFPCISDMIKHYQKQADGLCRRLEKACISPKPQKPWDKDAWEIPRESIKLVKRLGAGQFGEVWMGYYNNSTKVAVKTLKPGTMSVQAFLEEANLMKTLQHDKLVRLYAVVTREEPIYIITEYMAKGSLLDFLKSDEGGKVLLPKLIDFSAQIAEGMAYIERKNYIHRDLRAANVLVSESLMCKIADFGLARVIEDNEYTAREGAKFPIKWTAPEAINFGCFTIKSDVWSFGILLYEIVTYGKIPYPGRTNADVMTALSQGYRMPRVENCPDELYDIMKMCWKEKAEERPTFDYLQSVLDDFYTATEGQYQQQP

As for `Cc1ccc(Cl)cc1-c1[nH]c(-c2nc(N)ncc2C#Cc2ccc(N3CCC(O)CC3)cc2)cc1C(N)=O` [compound 28, 5-(2-Amino-5-{[4-(4-hydroxypiperidin-1-yl)phenyl]ethynyl}pyrimidin-4-yl)-2-(5-chloro-2-methylphenyl)-1H-pyrrole-3-carboxamide], the IC50 came out at 1 nM in experiment [1], 1 nM in experiment [2] and 330 nM in experiment [3].

Regarding `Cc1ccc(Cl)cc1-c1[nH]c(-c2nc(N)ncc2C#Cc2cccc(OC3CCN(C)CC3)c2)cc1C(N)=O` [compound 32, 5-[2-Amino-5-({3-[(1-methylpiperidin-4-yl)oxy]phenyl}ethynyl)pyrimidin-4-yl]-2-(5-chloro-2-methylphenyl)-1H-pyrrole-3-carboxamide], the IC50 in experiment [1] was determined as 4 nM; in experiment [2], 6 nM; in experiment [3], 160 nM.

`COc1ccc(N2CCN(C)CC2)cc1C#Cc1cnc(N)nc1-c1cc(C(N)=O)c(-c2cc(Cl)ccc2C)[nH]1` [compound 34, 5-(2-Amino-5-{[2-methoxy-5-(4-methylpiperazin-1-yl)phenyl]ethynyl}pyrimidin-4-yl)-2-(5-chloro-2-methylphenyl)-1H-pyrrole-3-carboxamide]: the IC50 came out at 5 nM in experiment [1], 20 nM in experiment [2] and 670 nM in experiment [3].

As to `Cc1ccc(Cl)cc1-c1[nH]c(-c2nc(N)ncc2C#Cc2ccc(N3CCN(C)CC3)cc2F)cc1C(N)=O` [compound 42, 5-(2-Amino-5-{[2-fluoro-4-(4-methylpiperazin-1-yl)phenyl]ethynyl}pyrimidin-4-yl)-2-(5-chloro-2-methylphenyl)-1H-pyrrole-3-carboxamide], the IC50 in experiment [1] turned out to be 11 nM; in experiment [2], 9 nM; in experiment [3], 240 nM.

Take `COc1cc(N2CCN(C)CC2)ccc1C#Cc1cnc(N)nc1-c1cc(C(N)=O)c(-c2cc(Cl)ccc2C)[nH]1` [compound 46, 5-(2-Amino-5-{[2-methoxy-4-(4-methylpiperazin-1-yl)phenyl]ethynyl}pyrimidin-4-yl)-2-(5-chloro-2-methylphenyl)-1H-pyrrole-3-carboxamide]: the values for the IC50 in experiment [1], in experiment [2] and in experiment [3] were 6 nM, 18 nM and 290 nM, respectively.

Take `Cc1ccc(Cl)cc1-c1[nH]c(-c2nc(N)ncc2C#Cc2cccc(N3CCN(C)CC3)c2)cc1C(N)=O` [compound 47, 5-(2-Amino-5-{[3-(4-methylpiperazin-1-yl)phenyl]ethynyl}pyrimidin-4-yl)-2-(5-chloro-2-methylphenyl)-1H-pyrrole-3-carboxamide]: the results for the IC50 in experiment [1], in experiment [2] and in experiment [3] were 3 nM, 6 nM and 220 nM, respectively.

Regarding `Cc1ccc(Cl)cc1-c1[nH]c(-c2nc(N)ncc2C#Cc2ccc(OC3CCN(C)CC3)cc2)cc1C(N)=O` [compound 48, 5-[2-Amino-5-({4-[(1-methylpiperidin-4-yl)oxy]phenyl}ethynyl)pyrimidin-4-yl]-2-(5-chloro-2-methylphenyl)-1H-pyrrole-3-carboxamide], the IC50 amounted to 6 nM in experiment [1], 8 nM in experiment [2] and 160 nM in experiment [3].

With `Cc1ccc(Cl)cc1-c1[nH]c(-c2nc(N)ncc2C#Cc2cc(N3CCN(C)CC3)ccc2F)cc1C(N)=O` [compound 49, 5-(2-Amino-5-{[2-fluoro-5-(4-methylpiperazin-1-yl)phenyl]ethynyl}pyrimidin-4-yl)-2-(5-chloro-2-methylphenyl)-1H-pyrrole-3-carboxamide], the IC50 amounted to 5 nM in experiment [1], 20 nM in experiment [2] and 140 nM in experiment [3].

As to `Cc1ccc(Cl)cc1-c1[nH]c(-c2nc(N)ncc2C#CCN2CCN(C)CC2)cc1C(N)=O` [compound 50, 5-{2-Amino-5-[3-(4-methylpiperazin-1-yl)prop-1-yn-1-yl]pyrimidin-4-yl}-2-(5-chloro-2-methylphenyl)-1H-pyrrole-3-carboxamide], the IC50 in experiment [1] worked out at 7 nM; in experiment [2], 26 nM; in experiment [3], 1380 nM.

As to `Cc1ccc(Cl)cc1-c1[nH]c(-c2nc(N)ncc2C#Cc2cccc(NCCN)c2)cc1C(N)=O` [compound 63, 5-[2-Amino-5-({3-[(2-aminoethyl)amino]phenyl}ethynyl)pyrimidin-4-yl]-2-(5-chloro-2-methylphenyl)-1H-pyrrole-3-carboxamide], the IC50 in experiment [1] turned out to be 3 nM; in experiment [2], 5 nM; in experiment [3] it was 100 nM.

`Cc1ccc(Cl)cc1-c1[nH]c(-c2nc(N)ncc2C#Cc2ccc(CN3CCCC3)cc2)cc1C(N)=O` [compound 66, 5-(2-Amino-5-{[4-(pyrrolidin-1-ylmethyl)phenyl]ethynyl}pyrimidin-4-yl)-2-(5-chloro-2-methylphenyl)-1H-pyrrole-3-carboxamide]: the results for the IC50 in experiment [1], in experiment [2] and in experiment [3] were 1 nM, 1 nM and 190 nM, respectively.
